Paper PMC9699638, “Study of Membrane-Immobilized Oxidoreductases in Wastewater Treatment for Micropollutants Removal” (International Journal of Molecular Sciences, 2022)
Counter-ions that a name gives are not always drawn.

Assays:
[1] = test system: T1, laccase; settings: free enzyme; 50 mM acetate buffer pH 5; apparent
T1 construct: gene LCC2

[2] = test system: T2, horseradish peroxidase (HRP); settings: free enzyme; 50 mM phosphate buffer pH 7; co-substrate H2O2 (10 mM); apparent
T2 construct: gene PRXC1A

CCn1c(=NN=c2sc3cc(S(=O)(=O)O)ccc3n2CC)sc2cc(S(=O)(=O)O)ccc21 [2,2′-azino-bis(3-ehylbenzothiazoline-6-sulfonic acid), diammonium salt]
Km [1]: 87 µM
Km [2]: 1330 µM
